This passage reports inhibition and inhibition in vivo results from patent US5324725A, “7-fused 2-(piperazinoalkyl) indole derivatives, intermediates and compositions thereof” (Kali-Chemie Pharma GmbH, priority 1991, dated 1994).

Test [1] has as its system P.A.F.-induced aggregation of platelets from rabbit blood. The experiment in a line: Anti-P.A.F. effect in vitro: inhibition of P.A.F.-induced platelet aggregation. The class given is cell-based, rabbit (New Zealand hybrids). As to conditions: Oryctolagus cuniculus, Platelet, test substance concentration 10^-5 mol/l. The essentials:
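Washed, aspirin-treated rabbit platelets (4×10^9/ml stock suspension) in modified Tyrode buffer, pH 7.4, preincubated 90 s with test compound at 10^-5 mol/l final, then challenged with P.A.F. Aggregation followed 4–5 min in an aggregometer. Inhibition expressed in % relative to P.A.F.-only (100%) and platelet-only (0%) controls.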

The subject of test [2] is Passive cutaneous anaphylaxis (P.C.A.). As to the kind of experiment: Inhibition of passive cutaneous anaphylaxis (P.C.A.). The class given is in vivo, rat (Sprague-Dawley). Particulars: Rattus norvegicus, 1 h; rats, 2 × 10^-5 mol/kg p.o., one hour before ovalbumin challenge. The essentials: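 Sprague-Dawley rats (150-180 g) were sensitized intradermally with rat IgE-rich anti-ovalbumin serum and challenged 24 h later with i.v. ovalbumin 8.25 mg/kg plus Evans blue. Compound was given orally at 2×10^-5 mol/kg 1 h before challenge. Dye exudation was scored visually at 30 min as % inhibition versus vehicle controls.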

In test [1], `Cc1ccnc(N2CCN(CCc3c(C)n4c5c(cccc35)CCC4)CC2)c1` [Example 1, 5,6-Dihydro-2-methyl-1-{2-[4-(4-methylpyridin-2-yl)piperazin-1-yl]ethyl}-4H-pyrrolo[3,2,1-ij]quinoline] had an inhibition at 10 µM of 97%. This molecule also gave an inhibition in vivo at 20 µmol/kg in test [2] of 98%.

Regarding `Cc1ccnc(N2CCN(CCc3c(C)n4c5c(cccc35)CCC4c3ccccc3)CC2)c1` (stereo not drawn) [Example 3, 5,6-dihydro-2-methyl-4-phenyl-1-{2-[4-(4-methylpyridine-2-yl)piperazin-1-yl]-ethyl}-4H-pyrrolo[3,2,1-ij]quinoline], in test [1], the inhibition at 10 µM was 100%. In addition, the inhibition in vivo at 20 µmol/kg in test [2] stood at 100%.

In test [1], `CCCCCCCC1CCc2cccc3c(CCN4CCN(c5cc(C)ccn5)CC4)c(C)n1c23` (stereo not drawn) [Example 4, 4-n-heptyl-5,6-dihydro-2-methyl-1-{2-[4-(4-methylpyridin-2-yl)piperazin-1-yl]ethyl}-4H-pyrrolo[3,2,1-ij]-quinoline] yielded an inhibition at 10 µM of 58%. Also, the inhibition in vivo at 20 µmol/kg in test [2] is 55%.

In the case of `COc1ccc(-c2c(CCN3CCN(c4cc(C)ccn4)CC3)c3cccc4c3n2CCC4)cc1` [Example 7, 2-(4-methoxy-phenyl)-1-{2-[4-(4-methylpyridin-2-yl)piperazin-1-yl]ethyl}-5,6-dihydro-4H-pyrrolo[3,2,1-ij]quinoline], the inhibition at 10 µM in test [1] was 100%. The molecule further registered an inhibition in vivo at 20 µmol/kg in test [2] of 75%.

On to `Cc1ccnc(N2CCN(CCc3c(-c4ccc(O)cc4)n4c5c(cccc35)CCC4)CC2)c1` [Example 8, 2-(4-hydroxyphenyl)-1-{2-[4-(4-methylpyridin-2-yl)piperazin-1-yl]ethyl}-5,6-dihydro-4H-pyrrolo[3,2,1-ij]quinoline], for which the inhibition at 10 µM in test [1] is 100%.

In test [1], `Cc1ccnc(N2CCN(CCc3c(C)n4c5c(cc(Br)cc35)CCC4)CC2)c1` [Example 9, 8-Bromo-2-methyl-1-{2-[4-(4-methylpyridin-2-yl)piperazin-1-yl]ethyl}-5,6-dihydro-4H-pyrrolo[3,2,1-ij]quinoline] displayed an inhibition at 10 µM of 73%. The inhibition in vivo at 20 µmol/kg in test [2] is 90%.

The molecule `Cc1ccnc(N2CCN(CCc3c(C)n4c5c(cc([N+](=O)[O-])cc35)CCC4)CC2)c1` [Example 10, 2-Methyl-8-nitro-1-{2-[4-(4-methylpyridin-2-yl)-piperazin-1-yl]ethyl}-5,6-dihydro-4H-pyrrolo[3,2,1-ij]quinoline] displayed an inhibition at 10 µM in test [1] of 94%. In test [2], this molecule showed an inhibition in vivo at 20 µmol/kg of 83%.

In the case of `Cc1ccnc(N2CCN(CCc3c(C)n4c5c(cccc35)SCC4)CC2)c1` [Example 11, 5-Methyl-6-{2-[4-(4-methylpyridin-2-yl)piperazin-1-yl]ethyl}-2,3-dihydro-pyrrolo[1,2,3-de]-1,4-benzo-thiazine], 10 µM produced 89% inhibition in test [1]. The molecule also showed an inhibition in vivo at 20 µmol/kg in test [2] of 100%.

`Cc1ccnc(N2CCN(CCc3c(-c4ccc(OCCCCO)cc4)n4c5c(cccc35)CCC4)CC2)c1` [Example 12, 2-[4-(4-Hydroxybutyloxy)-phenyl]-1-{2-[4-(4-methylpyridin-2-yl)piperazin-1-yl]ethyl}-5,6-dihydro-4H-pyrrolo[3,2,1-ij]quinoline] gave an inhibition at 10 µM in test [1] of 100%. The molecule further returned an inhibition in vivo at 20 µmol/kg in test [2] of 25%.

As to `Cc1ccnc(N2CCN(CCc3cn4c5c(cccc35)CCC4)CC2)c1` [Example 13, 5,6-Dihydro-1-{2-[4-(4-methylpyridin-2-yl)piperazin-1-yl]ethyl}-4H-pyrrolo[3,2,1-ij]quinoline], testing at 10 µM in test [1] gave an inhibition of 93%. The inhibition in vivo at 20 µmol/kg in test [2] was determined as 83%.

In turn, `CCc1c(C(O)CN2CCN(c3cc(C)ccn3)CC2)c2cccc3c2n1CCC3` (stereo not drawn) [Example 14, 2-Ethyl-5,6-dihydro-1-{2-[4-(4-methylpyridin-2-yl)piperazin-1-yl]-1-hydroxyethyl}-4H-pyrrolo[3,2,1-ij]quinoline] returned an inhibition at 10 µM in test [1] of 86%. The molecule also came in with an inhibition in vivo at 20 µmol/kg in test [2] of 65%.

In turn, `CCc1c(CCN2CCN(c3cc(C)ccn3)CC2)c2cccc3c2n1CCC3` [Example 15, 2-Ethyl-5,6-dihydro-1-{2-[4-(4-methylpyridin-2-yl)piperazin-1-yl]ethyl}-4H-pyrrolo[3,2,1-ij]quinoline] displayed an inhibition at 10 µM in test [1] of 85%. This molecule returned an inhibition in vivo at 20 µmol/kg in test [2] of 85%.

Regarding `Cc1ccnc(N2CCN(CCc3c(CO)n4c5c(cccc35)CCC4)CC2)c1` [Example 16, 5,6-dihydro-2-hydroxymethyl-1-{2-[4-(4-methylpyridin-2-yl)piperazin-1-yl]ethyl}-4H-pyrrolo[3,2,1-ij]quinoline], 10 µM produced 73% inhibition in test [1]. The molecule also returned an inhibition in vivo at 20 µmol/kg in test [2] of 85%.

`Cc1ccnc(N2CCN(CCc3c(C)n4c5c(cc(C(O)C(C)C)cc35)CCC4)CC2)c1` (stereo not drawn) [Example 19, 5,6-Dihydro-8-(1-hydroxy-2-methylpropyl)-2-methyl-1-{2-[4-(4-methylpyridin-2-yl)piperazin-1-yl]ethyl}-4H-pyrrolo-[3,2,1-ij]quinoline] came in with an inhibition at 10 µM in test [1] of 83%. In test [2], this molecule yielded an inhibition in vivo at 20 µmol/kg of 95%.

`Cc1ccnc(N2CCN(CCc3c(C)n4c5c(cc(N)cc35)CCC4)CC2)c1` [Example 20, 8-Amino-5,6-dihydro-2-methyl-1-{2-[4-(4-methylpyridin-2-yl)piperazin-1-yl]ethyl}-4H-pyrrolo[3,2,1-ij]quinoline]: testing at 10 µM in test [1] gave an inhibition of 17%. The molecule also registered an inhibition in vivo at 20 µmol/kg in test [2] of 100%.

In test [1], `Cc1ccnc(N2CCN(CCc3c(C)n4c5c(cc(CC(C)C)cc35)CCC4)CC2)c1` [Example 21, 5,6-Dihydro-2-methyl-8-(2-methylpropyl)-1-{2-[4-(4-methylpyridin-2-yl)piperazin-1-yl]ethyl}-4H-pyrrolo[3,2,1-ij]quinoline] gave an inhibition at 10 µM of 91%. In test [2], this molecule registered an inhibition in vivo at 20 µmol/kg of 95%.

`CCCCC1CCc2cc(C(=O)C(C)C)cc3c(CCN4CCN(c5cc(C)ccn5)CC4)c(C)n1c23` (stereo not drawn) [Example 23, 4-n-Butyl-5,6-dihydro-8-(2-methyl-1-oxopropyl)-2-methyl-1-{2-[4-(4-methylpyridin-2-yl)piperazin-1-yl]ethyl}-4H-pyrrolo[3,2,1-ij]quinoline] gave an inhibition at 10 µM in test [1] of 100%. The inhibition in vivo at 20 µmol/kg in test [2] was found to be 100%.

`CC(=O)Oc1cc2c3c(c1)c(CCN1CCN(c4cc(C)ccn4)CC1)c(C)n3CCC2` [Example 24, 8-Acetoxy-5,6-dihydro-2-methyl-1-{2-[4-(4-methyl-pyridin-2-yl)piperazin-1-yl]ethyl}-4H-pyrrolo[3,2,1-ij]quinoline]: in test [1], the inhibition at 10 µM stood at 80%. In test [2], the inhibition in vivo at 20 µmol/kg is 55%.

Turning to `Cc1ccnc(N2CCN(CCc3c(C)n4c5c(cc(NC(=O)c6ccccc6)cc35)CCC4)CC2)c1` [Example 25, 8-Benzoylamino-5,6-dihydro-2-methyl-1-{2-[4-(4-methylpyridin-2-yl)piperazin-1-yl]-ethyl}-4H-pyrrolo[3,2,1-ij]quinoline], the inhibition at 10 µM in test [1] was found to be 43%. Moreover, the inhibition in vivo at 20 µmol/kg in test [2] stood at 100%.

`CC(C)=Cc1cc2c3c(c1)c(CCN1CCN(c4cc(C)ccn4)CC1)c(C)n3CCC2` [Example 26, 5,6-Dihydro-2-methyl-8-(2-methylprop-1-enyl)-1-{2-[4-(4-methylpyridin-2-yl)piperazin-1-yl]ethyl}-4H-pyrrolo[3,2,1-ij]quinoline] returned an inhibition at 10 µM in test [1] of 89%. Besides, in test [2], the inhibition in vivo at 20 µmol/kg turned out to be 95%.

In test [1], `Cc1ccnc(N2CCN(CCc3c(C)n4c5c(cc(C(=O)C(C)C)cc35)CCC4)CC2)c1` [Example 27, 5,6-dihydro-2-methyl-8-(2-methyl-1-oxopropyl)-1-{2-[4-(4-methylpyridin-2-yl)piperazin-1-yl]ethyl}-4H-pyrrolo-[3,2,1-ij]quinoline] came in with an inhibition at 10 µM of 83%. Further, the inhibition in vivo at 20 µmol/kg in test [2] stood at 100%.

In the case of `Cc1ccnc(N2CCN(CCc3c(C)n4c5c(cccc35)CC4C)CC2)c1` (stereo not drawn) [Example 33], at 10 µM the inhibition in test [1] was 71%. Further, the inhibition in vivo at 20 µmol/kg in test [2] was determined as 100%.

In test [1], `Cc1ccnc(N2CCN(CCc3c(C)n4c5c(ccc(Cl)c35)OCC4)CC2)c1` [Example 35] had an inhibition at 10 µM of 56%. Besides, the inhibition in vivo at 20 µmol/kg in test [2] was 75%.

In test [1], `Cc1c(CCN2CCN(c3ccccn3)CC2)c2cccc3c2n1CCC3` [Example 37] gave an inhibition at 10 µM of 28%. This molecule also came in with an inhibition in vivo at 20 µmol/kg in test [2] of 60%.

As to `Cc1ccc(N2CCN(CCc3c(C)n4c5c(cccc35)CCC4)CC2)nc1` [Example 42], the inhibition in vivo at 20 µmol/kg in test [2] came out at 50%.

As to `Cc1ccnc(N2CCN(CCc3c(-c4ccc(F)cc4)n4c5c(cccc35)CCC4)CC2)c1` [Example 47], testing at 10 µM in test [1] gave an inhibition of 95%. Moreover, the inhibition in vivo at 20 µmol/kg in test [2] amounted to 50%.

Consider `Cc1ccnc(N2CCN(CCc3c(C)n4c5c(c(Cl)cc(Cl)c35)OCC4)CC2)c1` [Example 79], for which at 10 µM the inhibition in test [1] was 71%.

`CNc1cc2c3c(c1)c(CCN1CCN(c4cc(C)ccn4)CC1)c(C)n3CCC2` [Example 80] yielded an inhibition at 10 µM in test [1] of 72%.

`Cc1ccnc(N2CCN(CCc3c(C)n4c5c(cc(N(C)C)cc35)CCC4)CC2)c1` [Example 81]: the inhibition in vivo at 20 µmol/kg in test [2] was 86%.

On to `Cc1ccnc(N2CCN(CCc3c(C)n4c5c(cc(C(=O)C6CCCCC6)cc35)CCC4)CC2)c1` [Example 83], for which, in test [1], the inhibition at 10 µM amounted to 100%.

Regarding `Cc1ccnc(N2CCN(CC(O)c3c(C4CCCCC4)n4c5c(cccc35)CCC4)CC2)c1` (stereo not drawn) [Example 85], at 10 µM the inhibition in test [1] was 100%.

Consider `Cc1ccnc(N2CCN(CCc3c(C)n4c5c(cccc35)CCC4C3CCCCC3)CC2)c1` (stereo not drawn) [Example 87], for which at 10 µM the inhibition in test [1] was 100%.

As for `Cc1ccnc(N2CCN(CCc3c(C)n4c5c(c(C(O)C(C)C)ccc35)SCC4)CC2)c1` (stereo not drawn) [Example 89], at 10 µM the inhibition in test [1] was 100%.
